{"source": "patent US9420769B2", "about": "“Chimeric non-human animal carrying human hepatocyte” (PHOENIXBIO CO., LTD., priority 2011, dated 2016)", "key": {"[1]": {"experiment": "MDZ metabolic activity in hepatic microsomes", "type": "in vitro ADME, mouse", "conditions": "cyp3a (KO/KO)/uPA(+/+)/SCID(+/+) chimeric mice [N2F1] compared with PXB mice; MDZ 50 umol/L, 0.1 mg/mL microsomes, 37° C., 5 minutes; 1'- and 4-hydroxylated metabolites", "procedure": "(§1) On weeks 10 to 11 after transplantation (14-week-old), each of chimeric mice and non-transplanted cyp3a (KO/KO)/uPA(+/+)/SCID(+/+) mice [N2F1] was dissected and thus the liver, the small intestine, and blood were collected. The collected liver and small intestine were cut into appropriate sizes. The resulting pieces were immersed in 1 mL of RNA Later (Life Technologies Corporation, Cat No. AM7020), stored at 4° C. overnight, and then stored at −80° C. In addition, portions of the liver and the small intestine were embedded in an OCT compound (Tissue-Tek) for the preparation of frozen sections, and then cryopreserved with liquid nitrogen. Microsomes were prepared from the remaining small intestine and liver portions by procedures such as centrifugation. The thus prepared microsomes were stored at −80° C.\n(§2) MDZ metabolic activity was determined using microsomes from the liver and the small intestine from each mouse prepared in Example 2 above. In an experiment using hepatic microsomes, MDZ with a final concentration of 50 umol/L was incubated in hepatic microsomes with a final concentration of 0.1 mg/mL at 37° C. for 5 minutes. […] 1′- and 4-hydroxylated metabolites of MDZ were measured using LC-MS/MS."}, "[2]": {"experiment": "MDZ metabolic activity in small intestinal microsomes", "type": "in vitro ADME, mouse", "conditions": "MDZ 50 umol/L, 0.5 mg/mL microsomes, 37° C., 10 minutes", "procedure": "as §1, §2"}, "[3]": {"experiment": "Metabolic studies for nefazodone hydrochloride (metabolite profiles in blood plasma and urine after peroral administration)", "type": "in vivo, mouse", "procedure": "Eight (8) mg of free/mL nefazodone hydrochloride suspended in 0.5% methylcellulose (resulting in a dose of […].) was forcibly administered perorally twice in a volume of 5 mL/kg b.w. at each instance to four (two male and two female mice) cyp3a (KO/KO)/uPA(+/+)/SCID(+/+) mice [N4F1] (week 8 after transplantation (11-week-old)) obtained in Example 8 above by transplantation of human hepatocytes.\nImmediately after the first peroral administration of nefazodone hydrochloride, the animals were housed in metabolic cages. Urine was sampled at a time 0 to 8 hours after administration and at a time 8 to 24 hours after administration, at room temperature. After the sampling of urine, the 2nd peroral administration of nefazodone hydrochloride was performed. One (1) hour after administration, blood, small intestine, and liver samples were collected. Immediately after blood collection, centrifugation (1000×g, 4° C. for 10 minutes) was performed to prepare blood plasma. Immediately after collection, urine and blood plasma were stored at −80° C. The PXB mice and the SCID(+/+) mice were similarly treated, and thus blood plasma and urine samples were obtained.\nAcetonitrile was added to the thus obtained blood plasma and urine, in an amount equivalent thereto, for deproteinization. Centrifugal filtration (Ultrafree-MC centrifugal filtration tube; 0.45 μm, 9500×g, 2 min, 4° C.) was then performed. The thus obtained filtrates were designated as analytical samples."}, "[4]": {"conditions": "PXB mice, 10 mg free/kg peroral, 1 hour after 2nd administration"}, "[5]": {"conditions": "SCID(+/+) mice, 10 mg free/kg peroral, 1 hour after 2nd administration"}, "[6]": {"conditions": "cyp3a (KO/KO)/uPA(+/+)/SCID(+/+) chimeric mice [N4F1], 10 mg free/kg peroral, 1 hour after 2nd administration"}}, "note": "Counter-ions that a name gives are not always drawn.", "data": [{"compound": "Cc1ncc2n1-c1ccc(Cl)cc1C(c1ccccc1F)=NC2", "note": "[MDZ, Midazolam]", "values": [{"measurement": "MDZ metabolic activity in hepatic microsomes", "setting": "[1]", "result": "almost the same"}, {"measurement": "MDZ metabolic activity in small intestinal microsomes", "setting": "[2]; cyp3a (KO/KO)/uPA(+/+)/SCID(+/+) chimeric mice [N2F1] compared with PXB mice", "result": "lower than that of the PXB mice"}, {"measurement": "MDZ metabolic activity in small intestinal microsomes", "setting": "[2]; cyp3a (KO/KO)/uPA(+/+)/SCID(+/+) chimeric mice [N2F1] compared with non-transplanted cyp3a (KO/KO)/uPA(+/+)/SCID(+/+) mice [N2F1]", "result": "almost the same as that of the non-transplanted"}]}, {"compound": "CCc1nn(CCCN2CCN(c3cccc(Cl)c3)CC2)c(=O)n1CCOc1ccccc1", "note": "[nefazodone hydrochloride]", "values": [{"measurement": "metabolites detected in blood plasma", "setting": "[3]; [4]", "result": "Triazoledione metabolite alone was detected"}, {"measurement": "unchanged nefazodone in blood plasma", "setting": "[3]; [4]", "result": "not detected"}, {"measurement": "metabolites detected in urine", "setting": "[3]; PXB mice, 10 mg free/kg peroral, urine 0 to 24 hours after administration", "result": "metabolite C alone was detected"}, {"measurement": "metabolites detected in blood plasma", "setting": "[3]; [5]", "result": "Triazoledione metabolite alone was detected"}, {"measurement": "unchanged nefazodone in blood plasma", "setting": "[3]; [5]", "result": "not detected"}, {"measurement": "metabolites detected in urine", "setting": "[3]; SCID(+/+) mice, 10 mg free/kg peroral, urine 0 to 24 hours after administration", "result": "metabolite C alone was detected"}, {"measurement": "human-type metabolites detected in blood plasma, in addition to Triazoledione metabolite", "setting": "[3]; [6]", "result": "OH-NEF and p-OH-NEF"}, {"measurement": "unchanged nefazodone in blood plasma", "setting": "[3]; [6]", "result": "detected"}, {"measurement": "human-type metabolites detected in urine", "setting": "[3]; cyp3a (KO/KO)/uPA(+/+)/SCID(+/+) chimeric mice [N4F1], 10 mg free/kg peroral, urine 0 to 24 hours after administration", "result": "mCPP and metabolite D"}, {"measurement": "metabolic profiles", "setting": "[3]; cyp3a (KO/KO)/uPA(+/+)/SCID(+/+) chimeric mice, unlike PXB mice and SCID(+/+) mice", "result": "reflected the human drug-metabolizing system"}]}]}
